Reference: article doi:10.1101/2025.10.31.685654v2 (biorxiv, 2026)

Columns and labels:
Experiment in all cases: two-electrode voltage clamp, Xenopus oocytes
Dm-DopC1 [1] = tested on: T1, Dm-DopC1; assay type: cell-based, Daphnia magna; conditions: antagonist against 50 µM dopamine; ND96 pH 7.5, -60 mV; 4-parameter fit, bottom = 0
T1 construct: full-length homomeric pentamer expressed from cRNA in Xenopus laevis oocytes; predicted signal peptide residues 1-26

Dm-DopC1 [2] = biological target: T2, Dm-DopC1 (Daphnia magna, UniProt Z9WC39ES65, D188N); assay type: cell-based
T2 construct: full-length homomeric pentamer expressed from cRNA in Xenopus laevis oocytes; predicted signal peptide residues 1-26

Dm-DopC1 [3] = biological target: T3, Dm-DopC1 (Daphnia magna, UniProt Z9WC39ES65, N92T); assay type: cell-based
T3 construct: full-length homomeric pentamer expressed from cRNA in Xenopus laevis oocytes; predicted signal peptide residues 1-26
Description: two-electrode voltage clamp, Xenopus oocytes on Dm-DopC1

T3 sequence (Z9WC39ES65 27-520 N92T limits assumed): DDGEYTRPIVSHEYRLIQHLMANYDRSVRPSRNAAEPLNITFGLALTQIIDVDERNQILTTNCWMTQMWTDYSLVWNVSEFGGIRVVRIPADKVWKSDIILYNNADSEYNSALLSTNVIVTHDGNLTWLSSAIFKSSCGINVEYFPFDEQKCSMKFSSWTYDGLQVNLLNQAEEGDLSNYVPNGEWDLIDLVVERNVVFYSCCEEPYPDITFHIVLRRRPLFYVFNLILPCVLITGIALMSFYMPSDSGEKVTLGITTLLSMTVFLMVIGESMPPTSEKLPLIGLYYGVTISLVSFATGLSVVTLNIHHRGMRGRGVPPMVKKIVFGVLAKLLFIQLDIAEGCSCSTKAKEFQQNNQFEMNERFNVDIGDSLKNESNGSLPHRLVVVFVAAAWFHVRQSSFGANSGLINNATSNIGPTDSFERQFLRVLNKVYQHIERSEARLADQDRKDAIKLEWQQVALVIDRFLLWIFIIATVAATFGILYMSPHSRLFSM
T2 sequence (Z9WC39ES65 27-520 D188N limits assumed): as the sequence (Z9WC39ES65 27-520 N92T limits assumed) above, with T66N, D162N counted along it

SMILES	IC50 (Dm-DopC1 [1]) [µM]	further results
CN1CCc2cccc3c2[C@H]1Cc1ccc(O)c(O)c1-3 [apomorphine]	6	–
NCCc1ccc(O)c(O)c1 [dopamine]	–	EC50 (Dm-DopC1 [2]): > 9000 µM
CN1CCC[C@H]1c1cccnc1 [nicotine]	109	–
NC[C@H](O)c1ccc(O)c(O)c1 [norepinephrine]	–	EC50 (Dm-DopC1 [3]): 440 ± 114 µM
COc1cc2c3cc1Oc1cc(ccc1O)C[C@@H]1c4c(cc(OC)c(O)c4Oc4ccc(cc4)C[C@@H]3N(C)CC2)CC[N+]1(C)C [tubocurarine]	0.9	–
